From patent US20040058993A1, “Inhibitor for the production of TNF alpha” (AJINOMOTO CO. INC., priority 2000, published 2004)

Key:
[1] = test system: TNFα production in Kupffer cells; assay: LPS-induced TNFα production in rat Kupffer cells (ELISA); type: cell-based; settings: LPS 10 μg/ml, AMS 0.1 to 3 mM (glycine 0.3 to 30 mM), supernatant after 4 hours, FIG. 1
Description: A male rat of SD strain (body weight: 200-300 g) was subjected to laparotomy under anesthetization with Nembutal, a collagenase solution was perfused from portal vein, then the liver was excised and Kupffer cells were separated by an elutriator method. The Kupffer cells were adjusted to 5×10^5 cells/ml, each 100μ/well thereof were spread on a 96-well microplate and incubation was carried out for 48 hours using E-MEM (Eagle-MEM) and 10% FCS (fetal calf serum) to conduct the experiment. LPS (lipopoly saccharide) (10 μg/ml) and aminomethanesulofonic acid (AMS) or glycine were added at the same time thereto so as to make their concentrations 0.1 to 3 mM or 0.3 to 30 mM, respectively and the amount of TNFα produced in a supernatant liquid after incubation for 4 hours was measured by an ELISA (enzyme-linked immunosorbent assay).

male rat of SD strain = assay: D-galactosamine-induced necrosis of hepatocytes in rat, plasma AST and ALT; type: in vivo; settings: AMS 1.0 g/kg oral in 0.3% CMC 1 hour before D-galactosamine 600 mg/kg i.p., plasma after 24 hours, p<0.05
Description: Action of Aminomethanesulfonic Acid (AMS) to Necrosis of Hepatocytes (Method of Experiment)
A male rat of SD strain of 6 weeks age (150 g) was introduced, subjected to a preliminary breeding by giving CRF-1 (a feed manufactured by Oriental Yeast) and water for six days, fasted for one night and used for the experiment. During the fasting, a 10% aqueous solution of glucose was freely taken by the rat for preventing the lowering of blood-sugar level. D-galactosamine (600 mg/kg) adjusted to pH 6.8 was intraperitoneally administered using a 30% physiological saline solution. After 24 hours from administration of D-galactosamine, 700 μl of blood were collected from subclavian vein under anesthetization with ether and AST (aspartate aminotransferase) and ALT (alanine aminotransferase) in plasma were measured by a Fuji Dry Chem (an automated biochemical measuring apparatus for blood manufactured by Fuji Photo-Film). One hour before the administration of D-galactosamine, AMS was orally administered as a drug to be tested using a 0.3% aqueous solution of carboxymethyl cellulose (CMC).
Group 2: AMS (1.0 g/kg)/0.3% CMC n=8.

With `NCS(=O)(=O)O` [aminomethanesulfonic acid] the “inhibition of the production of TNFα” value [1] was “inhibited the production of TNFα in a considerably strong manner as compared with glycine”, the “rise in ALT in the plasma” value (male rat of SD strain; FIG. 2) was “significantly inhibited” and the “rise in AST in the plasma” value (male rat of SD strain; FIG. 3) was “significantly inhibited”.
